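Grown in 96-well plates, cells were treated for 48 hours with each compound at five concentrations. Insufficient inhibition: endpoint recorded as highest concentration tested. The concentration for 50% growth inhibition is given as GI50. Definition used: TGI = concentration required for complete inhibition of growth.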
Experiments:
Assay in all cases: growth of human tumour cells (NCI), 48 h
[1] = test system: SR leukemia
[2] = test system: 786-0 renal
[3] = test system: DU-145 prostate
[4] = test system: SNB-19 CNS
[5] = test system: SK-OV-3 ovarian
[6] = test system: SNB-75 CNS
[7] = test system: NCI/ADR-RES ovarian
[8] = test system: A549 NSCLC
[9] = test system: HCC-2998 colon
[10] = test system: HOP-92 NSCLC

Structure (SMILES) | TGI [1] [µM] | TGI [2] [µM] | TGI [3] [µM] | TGI [4] [µM] | TGI [5] [µM] | TGI [6] [µM] | TGI [7] [µM] | TGI [8] [µM] | TGI [9] [µM] | TGI [10] [µM] | GI50 [3] [µM] | GI50 [10] [µM] | GI50 [4] [µM] | GI50 [5] [µM] | GI50 [6] [µM] | GI50 [7] [µM] | GI50 [8] [µM] | GI50 [9] [µM]
COC(=O)C1=C(C(=O)OC)C2CCC1CC2=O (stereo unspecified) | > 100 | > 100 | > 100 | > 100 | > 100 | > 100 | > 100 | > 100 | > 100 |  |  |  |  |  |  |  |  | 
c1ccc2c(CCNC3=NCCO3)cccc2c1 | > 10 |  | > 10 | > 10 | > 10 | > 10 | > 10 | > 10 | > 10 |  |  |  |  |  |  |  |  | 
C=CCOC1=C(OC(C)=O)C(C2COC(C)(C)O2)OC1=O (stereo unspecified) |  | 37.4 | > 100 | > 100 | > 100 | > 100 | > 100 | 69.4 | > 100 | 34.5 |  |  |  |  |  |  |  | 
CCN(CC)C(=O)N1CN(c2ccccc2)C2(CCN(CCCC3(c4ccc(F)cc4)OCCO3)CC2)C1=O | 47.5 | 33.6 | 38.3 | 89.7 | 61.5 | 45.3 | 46.4 | > 100 | 28.7 |  |  |  |  |  |  |  |  | 
Cc1cn(C2CC(/[N+]([O-])=N\Nc3ccc([N+](=O)[O-])cc3)C(CO)O2)c(=O)[nH]c1=O (stereo unspecified) | > 100 | > 100 | > 100 | > 100 | > 100 |  | > 100 | > 100 | > 100 | > 100 |  |  |  |  |  |  |  | 
C=C(C)[C@H]1C=C[C@@H](OC(C)=O)[C@@]2(COC(C)=O)[C@H](OC(=O)CCC)[C@H]3[C@@H](OC(C)=O)[C@@H](C)C[C@]3(O)C(=O)[C@@](C)(OC(C)=O)[C@H]12 | > 100 | > 100 |  | > 100 |  | > 100 | > 100 | > 100 | 86.5 | 69.8 |  |  |  |  |  |  |  | 
CC(=O)Nc1ccc(C(=O)NN2C(=O)C(Cl)C2/C=C/c2ccccc2)cc1 (stereo unspecified) | > 100 |  |  | > 100 | > 100 | > 100 |  | > 100 | > 100 | > 100 |  |  |  |  |  |  |  | 
ClC1(Cl)C2CCOC21n1cnc2ccccc21 (stereo unspecified) | > 100 | > 100 | > 100 | > 100 | > 100 | > 100 | > 100 | > 100 | > 100 |  |  |  |  |  |  |  |  | 
CC(C)N=C(NC#N)NS(=O)(=O)c1cnccc1NC1CCCCCCC1 | > 100 | > 100 | > 100 | > 100 | > 100 | > 100 | > 100 | > 100 | > 100 |  |  |  |  |  |  |  |  | 
COC(=O)c1cc(OCc2cc(OCc3ccc(Br)cc3)cc(OCc3ccc(Br)cc3)c2)cc(OCc2cc(OCc3ccc(Br)cc3)cc(OCc3ccc(Br)cc3)c2)c1 |  | > 100 | > 100 | > 100 | > 100 | > 100 | > 100 | > 100 | > 100 | > 100 |  |  |  |  |  |  |  | 
O=C(O)c1cc2sc(C(=O)O)cc2s1 | > 100 |  |  | > 100 | > 100 | > 100 |  | > 100 |  | > 100 |  |  |  |  |  |  |  | 
COc1ccc(/C=C2/C(=O)C(c3ccccc3)N(c3ccccc3)C2=O)cc1OC (stereo unspecified) | > 10 | > 10 | > 10 | > 10 | > 10 |  | > 10 | > 10 | > 10 | > 10 |  |  |  |  |  |  |  | 
FC(F)(F)c1ccc(N=NN2CCCC2)cc1 | > 100 | > 100 | > 100 | > 100 | > 100 |  |  | > 100 | > 100 | > 100 |  |  |  |  |  |  |  | 
CNC(=S)c1nnsc1N |  | > 100 | > 100 |  | > 100 | > 100 | > 100 | > 100 | > 100 |  |  |  |  |  |  |  |  | 
COc1ccc(C2=Nn3c(C)nnc3S/C2=C\c2ccc(-c3ccc([N+](=O)[O-])cc3)o2)cc1 |  | 22 | 27.3 | 38.7 | > 100 |  | 23.2 | 66.7 | 19.9 | 62.2 |  |  |  |  |  |  |  | 
COc1ccc(-c2cc(-c3ccncc3)nc(N)c2-c2ccc(F)cc2)cc1 | 38.7 | > 100 |  | > 100 | > 100 | > 100 | > 100 | > 100 |  | > 100 |  |  |  |  |  |  |  | 
O=[N+]([O-])c1ccc(N/N=C\c2ccc(O)cc2O)nc1 |  |  | > 100 | > 100 | > 100 | > 100 | 31.2 | > 100 | > 100 | > 100 | 1.77 | 5.54 | 3.24 | 2.18 | 9.77 | 0.498 | 2.47 | 3.94
COc1ccc(OC/C(N=Cc2cccnc2)=N/NC(=O)c2ccncc2)cc1 |  | > 100 | > 100 | > 100 | > 100 | 85.2 | > 100 | > 100 | > 100 |  |  |  |  |  |  |  |  | 
O=C(CCCN1CCC(Nc2ccc(F)cc2)(c2nnnn2C2CCCCC2)CC1)c1ccc(F)cc1 | > 100 | 37.1 | 28.4 | 36 | 11.5 | 24.7 | 46.9 | 31.6 | > 100 |  |  |  |  |  |  |  |  | 
O=C1OCC(CN2CCC(n3c(=O)[nH]c4ccccc43)CC2)=C1c1ccccc1 | 82.5 | 82.5 | 71.7 | 67.3 | 94.2 | 72.4 | 59.6 | > 100 | 77.2 |  |  |  |  |  |  |  |  | 
CN(C)CCNc1nc2c(c(=O)n(C)c(=O)n2C)n1C | > 100 | > 100 | > 100 | > 100 | > 100 |  | > 100 | > 100 |  | > 100 |  |  |  |  |  |  |  | 
NC(=O)NC(=O)c1cccc(C(=O)NC(N)=O)n1 | > 100 | > 100 | > 100 | > 100 | > 100 |  | > 100 | > 100 | > 100 | > 100 |  |  |  |  |  |  |  | 

Source: PubChem BioAssay (NCI)
